Source: BindingDB's records for doi:10.7270/Q2DV1HGT (Burnham Center For Chemical Genomics, 2012)

Biological target: T1, Tyrosine-protein phosphatase non-receptor type 5 (Homo sapiens, UniProt P54829)
T1 sequence (P54829 whole entry): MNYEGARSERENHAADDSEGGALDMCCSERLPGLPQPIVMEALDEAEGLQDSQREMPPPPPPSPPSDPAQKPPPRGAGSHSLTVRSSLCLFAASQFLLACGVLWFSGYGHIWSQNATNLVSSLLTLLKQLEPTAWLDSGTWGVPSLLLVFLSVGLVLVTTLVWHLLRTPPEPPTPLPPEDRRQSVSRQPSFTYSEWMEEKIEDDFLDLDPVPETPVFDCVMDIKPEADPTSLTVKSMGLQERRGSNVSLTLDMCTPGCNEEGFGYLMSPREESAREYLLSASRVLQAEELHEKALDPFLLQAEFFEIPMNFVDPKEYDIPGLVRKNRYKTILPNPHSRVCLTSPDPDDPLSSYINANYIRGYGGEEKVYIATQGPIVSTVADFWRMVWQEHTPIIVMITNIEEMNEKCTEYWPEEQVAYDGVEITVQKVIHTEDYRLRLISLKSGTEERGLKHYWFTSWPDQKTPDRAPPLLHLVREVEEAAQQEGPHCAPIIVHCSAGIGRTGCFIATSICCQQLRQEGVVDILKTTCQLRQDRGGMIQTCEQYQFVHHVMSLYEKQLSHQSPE
Assay: PTPN5 enzyme inhibition – biochemical, fluorescence intensity, uHTS hits, confirmation (AID 602372)

IC50 [µM]	SMILES
56.8	S=C1N=C(C23CC4CC(CC(C4)C2)C3)CC(c2ccc3c(c2)OCO3)N1 (stereo not given)
4.09	CCOc1cc(CN=Nc2nc(O)c(CC(=O)O)s2)ccc1OCc1ccc(Cl)cc1Cl [2-[2-[(N''E)-N''-[4-(2,4-dichlorobenzyl)oxy-3-ethoxy-benzylidene]hydrazino]-4-keto-2-thiazolin-5-yl]acetic acid]
> 80	C=c1c(O)c(O)c(=C2C(=O)C(=O)C(C)C(=O)C2=O)c(O)c1O (stereo not given) [(3E)-5-hydroxy-6-methyl-3-(2,3,5-trihydroxy-4-methyl-6-oxo-1-cyclohexa-2,4-dienylidene)cyclohex-5-ene-1,2,4-trione]
36.2	O=C1C(=O)N(CCCO)C(c2ccc(Br)cc2)C1C(=O)c1ccc(Br)cc1 (stereo not given) [(4E)-5-(4-bromophenyl)-4-[(4-bromophenyl)-oxidanyl-methylidene]-1-(3-oxidanylpropyl)pyrrolidine-2,3-dione]
22.6	S=C1N=C2C(=C3SCCS3)CCCC2C(c2ccccc2)N1 (stereo not given) [MLS000516376]
4.12	CSc1ccc(CN=Nc2ccc(S(=O)(=O)Nc3ccccc3C(=O)O)cc2[N+](=O)[O-])cc1 [MLS002245633]
8.95	O=C(N/N=C/C1C=CC=CC1=O)c1cccc([N+](=O)[O-])c1 (stereo not given) [MLS002667988]
24.4	COc1ccc(OC)c(-n2c(O)c3o[nH]c(-c4ccccc4Cl)c-3c2=O)c1 [SMR000046218]
9.72	COc1ccc(CN=Nc2nc(O)c(CC(=O)O)s2)cc1OCc1ccc(Cl)cc1Cl [[2-({3-[(2,4-dichlorobenzyl)oxy]-4-methoxybenzylidene}hydrazono)-4-oxo-1,3-thiazolidin-5-yl]acetic acid]

SMILES	IC50 [µM]
CCN(CC)P(=O)(NC(=O)C(Cl)(Cl)Cl)N(CC)CC [MLS000564159]	> 80
